Assay results published in ChEMBL document CHEMBL4602641, “Discovery of novel pyrrolo[2,3-b]pyridine derivatives bearing 4-oxoquinoline moiety as potential antitumor inhibitor” (Bioorg Med Chem Lett, 2020).
The source made the active and inactive calls. The rule behind the calls is not given here.

Columns and labels:
A549 [1] = test: Antiproliferative activity against human A549 cells assessed as cell growth inhibition measured after 72 hrs by MTT assay; settings: A549, 72 h
HepG2 [2] = test: Antiproliferative activity against human HepG2 cells assessed as cell growth inhibition measured after 72 hrs by MTT assay; settings: HepG2, 72 h
MCF7 = test: Antiproliferative activity against human MCF7 cells assessed as cell growth inhibition measured after 72 hrs by MTT assay; settings: MCF7, 72 h
HepG2 [3] = test: Induction of apoptosis in human HepG2 cells assessed as abnormal cell morphology at 0.24 uM by acridine orange staining based fluorescence microscopy; format: functional
HepG2 [4] = test: Induction of apoptosis in human HepG2 cells assessed as decomposed nucleus at 0.24 uM by acridine orange staining based fluorescence microscopy; format: functional, cell-based
HepG2 [5] = test: Induction of apoptosis in human HepG2 cells assessed as dispersed nucleus at 0.24 uM by acridine orange staining based fluorescence microscopy; format: functional, cell-based
HepG2 [6] = test: Induction of apoptosis in human HepG2 cells assessed as concentrated chromatin at 0.24 uM by acridine orange staining based fluorescence microscopy; format: functional, cell-based
[7] = target: Mast/stem cell growth factor receptor Kit (Homo sapiens, UniProt P10721); test: Inhibition of c-Kit (unknown origin) by enzymatic assay
[8] = target: Vascular endothelial growth factor receptor 2 (Homo sapiens, UniProt P35968); test: Inhibition of VEGFR2 (unknown origin) by enzymatic assay
[9] = target: Platelet-derived growth factor receptor beta (Homo sapiens, UniProt P09619); test: Inhibition of PDGFRbeta (unknown origin) by enzymatic assay
[10] = target: ALK tyrosine kinase receptor (Homo sapiens, UniProt Q9UM73); test: Inhibition of ALK (unknown origin) by enzymatic assay
[11] = target: Macrophage-stimulating protein receptor (Homo sapiens, UniProt Q04912); test: Inhibition of RON (unknown origin) by enzymatic assay
HepG2 [12] = test: Induction of apoptosis in human HepG2 cells assessed as abnormal cell morphology at 0.24 uM by inverted microscopy microscopy; format: functional, cell-based
A549 [13] = test: Antiproliferative activity against human A549 cells assessed as cell growth inhibition measured after 72 hrs by MTT assay
[14] = target: Hepatocyte growth factor receptor (Homo sapiens, UniProt P08581); test: Inhibition of c-Met (unknown origin) by caliper mobility shift assay
Sequence of Hepatocyte growth factor receptor (P08581 whole entry): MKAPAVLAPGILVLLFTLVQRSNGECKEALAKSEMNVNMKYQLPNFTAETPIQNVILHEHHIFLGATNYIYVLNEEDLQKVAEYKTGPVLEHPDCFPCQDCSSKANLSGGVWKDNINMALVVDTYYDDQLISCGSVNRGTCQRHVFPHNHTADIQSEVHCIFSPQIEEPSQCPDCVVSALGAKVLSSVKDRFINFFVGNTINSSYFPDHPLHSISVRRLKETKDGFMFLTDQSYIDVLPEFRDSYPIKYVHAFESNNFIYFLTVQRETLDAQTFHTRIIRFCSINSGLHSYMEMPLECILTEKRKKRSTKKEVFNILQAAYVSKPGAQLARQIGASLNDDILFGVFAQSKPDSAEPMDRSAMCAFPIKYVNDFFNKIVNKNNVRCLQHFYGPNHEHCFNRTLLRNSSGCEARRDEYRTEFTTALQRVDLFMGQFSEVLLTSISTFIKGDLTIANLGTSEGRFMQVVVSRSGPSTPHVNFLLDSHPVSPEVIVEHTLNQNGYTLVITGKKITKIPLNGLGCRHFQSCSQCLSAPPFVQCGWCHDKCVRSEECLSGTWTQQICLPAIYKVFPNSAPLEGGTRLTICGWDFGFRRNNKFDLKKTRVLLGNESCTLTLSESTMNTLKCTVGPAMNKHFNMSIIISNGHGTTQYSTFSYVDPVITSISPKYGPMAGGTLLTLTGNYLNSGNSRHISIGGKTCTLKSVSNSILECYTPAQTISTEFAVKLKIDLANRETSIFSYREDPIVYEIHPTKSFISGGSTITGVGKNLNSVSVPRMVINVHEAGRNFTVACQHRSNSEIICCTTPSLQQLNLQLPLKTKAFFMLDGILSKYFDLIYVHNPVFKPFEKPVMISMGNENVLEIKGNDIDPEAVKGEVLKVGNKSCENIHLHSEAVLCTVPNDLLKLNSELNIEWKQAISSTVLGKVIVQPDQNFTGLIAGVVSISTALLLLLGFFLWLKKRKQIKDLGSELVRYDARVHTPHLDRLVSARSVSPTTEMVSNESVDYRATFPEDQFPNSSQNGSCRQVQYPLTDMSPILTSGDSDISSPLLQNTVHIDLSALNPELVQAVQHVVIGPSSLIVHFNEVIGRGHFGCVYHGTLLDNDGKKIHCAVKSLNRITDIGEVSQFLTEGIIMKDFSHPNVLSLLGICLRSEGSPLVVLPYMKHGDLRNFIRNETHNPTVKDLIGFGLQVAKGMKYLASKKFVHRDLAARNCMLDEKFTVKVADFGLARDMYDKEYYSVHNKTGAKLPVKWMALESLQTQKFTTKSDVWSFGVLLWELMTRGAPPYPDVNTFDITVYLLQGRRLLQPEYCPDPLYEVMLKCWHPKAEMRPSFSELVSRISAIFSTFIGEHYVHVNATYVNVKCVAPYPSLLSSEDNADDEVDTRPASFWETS

Sequence of Mast/stem cell growth factor receptor Kit (P10721 whole entry): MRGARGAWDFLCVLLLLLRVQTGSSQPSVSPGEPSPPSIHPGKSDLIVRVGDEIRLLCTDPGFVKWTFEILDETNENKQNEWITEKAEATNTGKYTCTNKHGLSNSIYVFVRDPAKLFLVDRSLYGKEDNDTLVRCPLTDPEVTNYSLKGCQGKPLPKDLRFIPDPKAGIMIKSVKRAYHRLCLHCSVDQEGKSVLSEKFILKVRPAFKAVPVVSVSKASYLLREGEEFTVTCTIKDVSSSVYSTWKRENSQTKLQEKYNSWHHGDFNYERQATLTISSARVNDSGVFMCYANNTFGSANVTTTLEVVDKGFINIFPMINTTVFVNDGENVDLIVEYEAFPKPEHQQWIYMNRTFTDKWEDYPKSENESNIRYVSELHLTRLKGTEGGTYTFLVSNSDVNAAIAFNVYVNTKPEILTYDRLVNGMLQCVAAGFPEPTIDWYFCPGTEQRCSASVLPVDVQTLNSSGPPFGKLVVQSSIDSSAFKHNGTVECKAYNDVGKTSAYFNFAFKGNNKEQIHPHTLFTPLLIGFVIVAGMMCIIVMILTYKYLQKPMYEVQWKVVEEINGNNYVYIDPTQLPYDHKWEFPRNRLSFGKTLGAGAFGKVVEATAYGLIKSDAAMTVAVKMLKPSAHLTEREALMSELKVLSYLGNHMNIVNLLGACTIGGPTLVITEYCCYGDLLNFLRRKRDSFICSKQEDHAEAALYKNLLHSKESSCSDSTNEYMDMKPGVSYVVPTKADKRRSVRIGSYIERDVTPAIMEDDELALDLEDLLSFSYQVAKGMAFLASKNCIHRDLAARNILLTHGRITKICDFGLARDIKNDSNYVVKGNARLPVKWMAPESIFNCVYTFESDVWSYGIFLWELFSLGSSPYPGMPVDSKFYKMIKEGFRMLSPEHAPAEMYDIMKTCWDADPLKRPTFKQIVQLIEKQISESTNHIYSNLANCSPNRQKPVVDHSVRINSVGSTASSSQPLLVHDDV
Sequence of Macrophage-stimulating protein receptor (Q04912 25-304 limits assumed): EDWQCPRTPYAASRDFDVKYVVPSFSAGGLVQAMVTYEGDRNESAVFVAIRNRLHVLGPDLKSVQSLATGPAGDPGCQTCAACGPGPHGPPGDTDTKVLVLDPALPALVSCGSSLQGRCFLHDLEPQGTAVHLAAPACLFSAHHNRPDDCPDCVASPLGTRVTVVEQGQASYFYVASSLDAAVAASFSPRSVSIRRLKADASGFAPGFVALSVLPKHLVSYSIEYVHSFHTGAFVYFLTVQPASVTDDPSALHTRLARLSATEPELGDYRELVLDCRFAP
Sequence of Macrophage-stimulating protein receptor (Q04912 310-1400 limits assumed): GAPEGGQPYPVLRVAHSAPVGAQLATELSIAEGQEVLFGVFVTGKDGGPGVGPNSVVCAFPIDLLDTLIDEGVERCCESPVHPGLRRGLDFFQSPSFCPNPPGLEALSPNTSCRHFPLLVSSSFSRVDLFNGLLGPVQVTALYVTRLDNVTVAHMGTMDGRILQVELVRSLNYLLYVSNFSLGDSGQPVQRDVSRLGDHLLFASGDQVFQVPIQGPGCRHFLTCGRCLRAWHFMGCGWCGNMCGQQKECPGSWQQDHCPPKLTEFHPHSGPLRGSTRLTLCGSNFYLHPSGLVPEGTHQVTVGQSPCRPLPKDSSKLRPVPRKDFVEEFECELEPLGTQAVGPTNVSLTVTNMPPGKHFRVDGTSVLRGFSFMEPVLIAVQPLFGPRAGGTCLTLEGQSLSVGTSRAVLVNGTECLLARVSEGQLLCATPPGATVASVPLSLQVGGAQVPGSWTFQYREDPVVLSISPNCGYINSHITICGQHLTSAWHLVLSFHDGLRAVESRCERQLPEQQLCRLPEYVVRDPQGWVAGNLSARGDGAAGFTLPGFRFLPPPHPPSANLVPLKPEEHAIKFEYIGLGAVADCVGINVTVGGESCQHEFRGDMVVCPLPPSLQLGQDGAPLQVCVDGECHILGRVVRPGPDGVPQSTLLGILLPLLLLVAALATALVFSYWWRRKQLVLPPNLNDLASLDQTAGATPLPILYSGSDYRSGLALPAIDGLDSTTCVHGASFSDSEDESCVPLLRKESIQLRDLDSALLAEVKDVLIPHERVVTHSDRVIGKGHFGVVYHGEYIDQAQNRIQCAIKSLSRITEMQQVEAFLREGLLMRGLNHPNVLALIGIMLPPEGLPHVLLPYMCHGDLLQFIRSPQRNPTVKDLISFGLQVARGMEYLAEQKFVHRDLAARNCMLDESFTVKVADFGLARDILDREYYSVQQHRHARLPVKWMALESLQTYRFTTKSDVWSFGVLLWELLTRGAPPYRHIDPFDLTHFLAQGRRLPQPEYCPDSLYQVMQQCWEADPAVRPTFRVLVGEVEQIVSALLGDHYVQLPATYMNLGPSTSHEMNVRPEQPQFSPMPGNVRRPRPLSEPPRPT
Sequence of Platelet-derived growth factor receptor beta (P09619 whole entry): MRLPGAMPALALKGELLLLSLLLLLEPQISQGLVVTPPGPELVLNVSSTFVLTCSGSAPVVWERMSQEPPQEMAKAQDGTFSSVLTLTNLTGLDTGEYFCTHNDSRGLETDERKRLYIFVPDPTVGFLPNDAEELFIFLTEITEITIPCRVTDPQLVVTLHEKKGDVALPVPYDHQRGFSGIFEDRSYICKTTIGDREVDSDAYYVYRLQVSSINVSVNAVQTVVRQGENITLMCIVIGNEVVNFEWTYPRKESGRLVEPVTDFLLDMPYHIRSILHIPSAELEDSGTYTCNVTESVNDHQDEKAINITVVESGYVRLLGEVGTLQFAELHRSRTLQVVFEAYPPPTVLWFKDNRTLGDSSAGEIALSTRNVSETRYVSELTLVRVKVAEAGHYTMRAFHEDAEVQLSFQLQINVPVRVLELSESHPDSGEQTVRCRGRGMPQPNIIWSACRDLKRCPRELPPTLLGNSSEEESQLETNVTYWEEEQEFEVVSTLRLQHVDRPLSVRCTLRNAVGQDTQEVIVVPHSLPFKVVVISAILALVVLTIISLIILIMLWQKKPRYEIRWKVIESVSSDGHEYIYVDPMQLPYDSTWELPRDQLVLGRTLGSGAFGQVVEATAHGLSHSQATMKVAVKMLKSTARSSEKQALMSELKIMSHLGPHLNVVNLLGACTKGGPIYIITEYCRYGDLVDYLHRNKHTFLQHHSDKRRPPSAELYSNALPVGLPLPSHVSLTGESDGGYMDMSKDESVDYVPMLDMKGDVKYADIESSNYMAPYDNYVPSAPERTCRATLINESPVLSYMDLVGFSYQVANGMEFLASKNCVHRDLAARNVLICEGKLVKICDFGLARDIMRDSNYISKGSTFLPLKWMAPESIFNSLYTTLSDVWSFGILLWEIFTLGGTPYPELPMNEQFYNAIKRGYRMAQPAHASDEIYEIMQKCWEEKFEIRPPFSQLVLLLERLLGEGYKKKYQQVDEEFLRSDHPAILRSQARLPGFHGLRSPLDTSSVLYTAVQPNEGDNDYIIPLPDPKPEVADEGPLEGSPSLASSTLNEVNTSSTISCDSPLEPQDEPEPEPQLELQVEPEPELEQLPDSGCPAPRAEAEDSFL

| Compound | IC50 (A549 [1]) | IC50 (HepG2 [2]) | IC50 (MCF7) | also measured |
| --- | --- | --- | --- | --- |
| Cn1ccc2c(Oc3ccc(NC(=O)c4cn(-c5ccc(F)cc5)c5ccccc5c4=O)cc3F)ccnc21 | 1460 nM | 2010 nM |  |  |
| O=C(Nc1ccc(Oc2ccnc3[nH]ccc23)cc1)c1cn(-c2ccc(Br)cc2F)c2ccccc2c1=O | 1330 nM | 790 nM |  |  |
| O=C(Nc1ccc(Oc2ccnc3[nH]ccc23)c(F)c1)c1cn(-c2ccc(C(F)(F)F)cc2Cl)c2ccccc2c1=O | 1620 nM | 1840 nM | 1120 nM |  |
| COc1ccc(-n2cc(C(=O)Nc3ccc(Oc4ccnc5c4ccn5C)c(F)c3)c(=O)c3ccccc32)cc1 | 3210 nM | 3750 nM | 6720 nM |  |
| O=C(Nc1ccc(Oc2ccnc3[nH]ccc23)c(F)c1)c1cn(-c2ccc(F)cc2)c2ccccc2c1=O | 290 nM | 270 nM | 520 nM | Activity (HepG2 [3]): Active; Activity (HepG2 [4]): Active; Activity (HepG2 [5]): Active; Activity (HepG2 [6]): Active; IC50 [7]: 1310 nM; IC50 [8]: > 10000 nM; IC50 [9]: > 10000 nM; IC50 [10]: > 10000 nM; IC50 [11]: > 10000 nM; Activity (HepG2 [12]): Active; inhibition (A549 [13]): Dose-dependent effect |
| Cn1ccc2c(Oc3ccc(NC(=O)c4cn(-c5ccc(C(F)(F)F)cc5Cl)c5ccccc5c4=O)cc3F)ccnc21 | 2050 nM |  | 190 nM |  |
| O=C(Nc1ccc(Oc2ccnc3[nH]ccc23)c(F)c1)c1cn(-c2ccccc2)c2ccccc2c1=O | 420 nM | 760 nM | 430 nM |  |
| O=C(Nc1ccc(Oc2ccnc3[nH]ccc23)cc1)c1cn(-c2ccc(F)cc2)c2ccccc2c1=O | 390 nM | 450 nM | 720 nM |  |
| O=C(Nc1ccc(Oc2ccnc3[nH]ccc23)cc1)c1cn(-c2ccc(F)c(Cl)c2)c2ccccc2c1=O | 4810 nM | 1120 nM | 1510 nM |  |
| Cn1ccc2c(Oc3ccc(NC(=O)c4cn(-c5ccccc5)c5ccccc5c4=O)cc3F)ccnc21 | 1720 nM | 2170 nM | 2790 nM |  |
| O=C(Nc1ccc(Oc2ccnc3[nH]ccc23)cc1)c1cn(-c2ccc(Br)cc2)c2ccccc2c1=O | 450 nM | 220 nM | 610 nM | IC50 [14]: 10 nM |
| Cn1ccc2c(Oc3ccc(NC(=O)c4cn(-c5ccc(Br)cc5)c5ccccc5c4=O)cc3F)ccnc21 | 1390 nM | 1260 nM | 1830 nM |  |
| O=C(Nc1ccc(Oc2ccnc3[nH]ccc23)cc1)c1cn(-c2ccccc2)c2ccccc2c1=O | 1030 nM | 2250 nM | 3560 nM |  |
| O=C(Nc1ccc(Oc2ccnc3[nH]ccc23)cc1)c1cn(-c2ccc(Cl)cc2)c2ccccc2c1=O | 650 nM | 250 nM | 1590 nM |  |
| O=C(Nc1ccc(Oc2ccnc3[nH]ccc23)c(F)c1)c1cn(-c2ccc(F)c(Cl)c2)c2ccccc2c1=O | 2150 nM | 3390 nM |  |  |
| COc1ccc(-n2cc(C(=O)Nc3ccc(Oc4ccnc5[nH]ccc45)c(F)c3)c(=O)c3ccccc32)cc1 | 4150 nM | 6530 nM | 6620 nM |  |
| O=C(Nc1ccc(Oc2ccnc3[nH]ccc23)c(F)c1)c1cn(-c2ccc(Br)cc2)c2ccccc2c1=O | 950 nM | 710 nM | 650 nM |  |
| COc1cc2c(Oc3ccc(NC(=O)C4(C(=O)Nc5ccc(F)cc5)CC4)cc3F)ccnc2cc1OCCCN1CCOCC1 [FORETINIB] | 480 nM | 350 nM | 730 nM |  |
| COc1ccc(-n2cc(C(=O)Nc3ccc(Oc4ccnc5[nH]ccc45)cc3)c(=O)c3ccccc32)cc1 | 4980 nM | 5950 nM | 4650 nM |  |
| Cn1ccc2c(Oc3ccc(NC(=O)c4cn(-c5ccc(Cl)cc5)c5ccccc5c4=O)cc3F)ccnc21 | 250 nM | 290 nM | 2120 nM | IC50 [14]: 87 nM |
| O=C(Nc1ccc(Oc2ccnc3[nH]ccc23)cc1)c1cn(-c2ccc(C(F)(F)F)cc2Cl)c2ccccc2c1=O | 2350 nM |  | 3570 nM |  |
| O=C(Nc1ccc(Oc2ccnc3[nH]ccc23)c(F)c1)c1cn(-c2ccc(Cl)cc2)c2ccccc2c1=O | 320 nM | 380 nM |  | IC50 [14]: 41 nM |
| Cn1ccc2c(Oc3ccc(NC(=O)c4cn(-c5ccc(Br)cc5F)c5ccccc5c4=O)cc3F)ccnc21 | 1520 nM | 2510 nM | 420 nM |  |
| Cn1ccc2c(Oc3ccc(NC(=O)c4cn(-c5ccc(F)c(Cl)c5)c5ccccc5c4=O)cc3F)ccnc21 | 1210 nM |  |  |  |
| O=C(Nc1ccc(Oc2ccnc3[nH]ccc23)c(F)c1)c1cn(-c2ccc(Br)cc2F)c2ccccc2c1=O | 1150 nM | 2200 nM | 1390 nM |  |
